These results are taken from patent publication US11839641B2, “Methods and compositions for treatment of lysosomal storage disorders” (JME Group Associates Inc., priority 2020, dated 2023).

In series [1] the target is T1, Barley GAA (high-isoelectric-point (pI) α-glucosidase) (Hordeum vulgare, UniProt Q43763).
T1 sequence (Q43763 24-877): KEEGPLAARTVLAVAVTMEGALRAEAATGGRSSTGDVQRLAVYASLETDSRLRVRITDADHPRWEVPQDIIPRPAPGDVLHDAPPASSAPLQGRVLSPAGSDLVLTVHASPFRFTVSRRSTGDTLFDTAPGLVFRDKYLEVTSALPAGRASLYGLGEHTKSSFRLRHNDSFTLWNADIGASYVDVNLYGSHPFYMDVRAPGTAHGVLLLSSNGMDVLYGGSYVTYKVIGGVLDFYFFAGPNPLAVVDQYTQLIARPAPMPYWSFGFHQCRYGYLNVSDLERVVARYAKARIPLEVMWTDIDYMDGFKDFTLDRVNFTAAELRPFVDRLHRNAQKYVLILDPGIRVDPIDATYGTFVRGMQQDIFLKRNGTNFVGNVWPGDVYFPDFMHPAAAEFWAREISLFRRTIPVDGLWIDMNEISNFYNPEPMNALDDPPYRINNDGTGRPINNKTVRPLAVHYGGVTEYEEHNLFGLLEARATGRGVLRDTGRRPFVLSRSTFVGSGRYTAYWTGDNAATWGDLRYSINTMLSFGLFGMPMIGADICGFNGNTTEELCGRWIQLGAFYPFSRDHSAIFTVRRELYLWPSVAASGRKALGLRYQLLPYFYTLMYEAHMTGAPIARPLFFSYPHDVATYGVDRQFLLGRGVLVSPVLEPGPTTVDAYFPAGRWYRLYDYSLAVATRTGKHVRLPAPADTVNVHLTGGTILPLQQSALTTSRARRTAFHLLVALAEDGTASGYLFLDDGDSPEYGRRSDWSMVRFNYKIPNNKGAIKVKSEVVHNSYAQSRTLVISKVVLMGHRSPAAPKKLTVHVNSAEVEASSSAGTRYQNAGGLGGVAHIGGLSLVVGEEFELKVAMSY
To be noted: cited from earlier work.

For series [2], the system named is human white blood cells. In words: Uptake of GGB crude lysate by human white blood cells. The series is classed as cell-based. Particulars: 18 hrs at 37° C. Here is the method: (§1) Uptake of a crude lysate of 7-8 day GGB by white blood cells (“WBC”) from humans and GAA KO mice was tested. Each treatment was performed±5 mM mannose-6 phosphate. Mannose-6 phosphate treatment blocks uptake by the M-6-P receptor (Martiniuk et al., “Further Studies of The Structure of Human Placental Acid Alpha-Glucosidase,” Arch Biochem Biophys 231:454-460 (1984); Martiniuk et al., “Production of a Functional Human Acid Maltase in Tobacco Seeds: Biochemical Analysis, Uptake by Human GSDII Cells, and in vivo Studies in GAA Knockout Mice,” Appl Biochem Biotechnol 171:916-926 (2013), each of which is hereby incorporated by reference in their entirety). Human placental GAA (hGAA) was used as a positive control. Anti-coagulate-EDTA was added at 1.5 to 2.0 mg/ml of whole blood. 0.15 ml of human and mouse KO blood was used and a 14×RBC lysing solution (NH4Cl (ammonium chloride)—8.02 g; NaHCO3 (sodium bicarbonate)—0.84 g; EDTA (disodium)—0.37 g to 100 ml with water) was added in a 1.5 ml microfuge tube, inverted for 10 minutes at RT until the liquid was clear red followed by spinning for 1 minute in a microfuge. The supernatant was decanted, cells were washed with phosphate buffered saline (PBS) and re-suspend in 2.4 ml complete DMEM-10% FBS (Life Technologies). […]

Series [3] deals with GAA KO mice white blood cells. In words: Uptake of GGB crude lysate by GAA KO mouse white blood cells ± mannose-6-phosphate. Particulars: 5 mM mannose-6-phosphate. The series is classed as cell-based. Here is the method:
as §1

The test system of series [4] is GAA KO mice. Particulars: cited from earlier work.

Where only a bound is given, the exact number is not on record here.

On to `C[C@H]1O[C@H](O[C@H]2[C@H](O)[C@@H](O)[C@@H](O[C@H]3[C@H](O)[C@@H](O)C(O)O[C@@H]3CO)O[C@@H]2CO)[C@H](O)[C@@H](O)[C@@H]1N[C@H]1C=C(CO)[C@@H](O)[C@H](O)[C@H]1O` (stereo partly drawn) [Acarbose], for which the inhibitory constant (Ki) (in general, the equilibrium dissociation constant of an inhibitor or competing ligand from its target) in series [1] is 1500 nM.

On to “placental hGAA: Human placental GAA (hGAA) used as a positive control”, for which the “GAA/NAG ratio compared to mock treated cells” value in series [2] is listed as “higher ratios of GAA/NAG”. For the same molecule, in series [3], the “uptake with mannose-6-phosphate” value was “blocked”.

Consider rhGAA: recombinant human GAA, for which the Glycogen reduction in series [4] (20 mg/kg/wk for 5 mo., skeletal muscle) was less than 50%. For the same molecule, the “enzyme uptake by skeletal muscle compared to liver and heart” value in series [4] (20 mg/kg/wk for 5 mo.) is on record as “minimal”. Further, the “glycogen clearance in skeletal muscle” value in series [4] (100 mg/kg/wk) is recorded as approximately 75%.
